“Also recorded” adds a separate entry of the source.
What was measured:
[1] = Stability of UAAs by 1H-NMR without thiols; format: physicochemical; conditions: dPBS (pH 7.4)/dioxane-d8 (v/v 1:1); rt, 37° C., 60° C.; 72 h
Protocol: Therefore, 0.1 M NaOH (for E. coli cells) and DMSO (for mammalian cells) are well suited solvents for the preparation of stock solutions for biological experiments. However, stock solutions were stored at −20° C. and thaw 30 min before usage.
Taking the properties of the purified compounds into account, these conditions resemble the nearest physiological conditions possible, as they prevail in biological experiments (living cells, aqueous buffered solutions of proteins) ((a) B. R. Varga, M. Kallay, K. Hegyi, S. Beni, P. Kele, Chemistry 2012, 18, 822-828; b) R. van Geel, G. J. Pruijn, F. L. van Delft, W. C. Boelens, Bioconjugate chemistry 2012, 23, 392-398).

[2] = target: T1, tRNA^Pyl/PylRS^AF (Methanosarcina mazei, UniProt Q8PWY1, Y306A/Y384F); assay: Recombinant expression of GFP^TAG→UAA in E. coli (amber suppression, UAA incorporation); format: cell-based; conditions: for expression yield of GFP^TAG→UAA (Coomassie SDS-PAGE): compared with TCO; for protein yields / incorporation rate compared with compound 2: E. coli, 1 mM UAA, GFP^Y39TAG; for incorporation rate compared with compound 2: FIG. 12
T1 construct: expressed in transfected cells; host or cells: E. coli Top10 (Invitrogen), co-transformed with pEvolv tRNA^Pyl/PylRS^AF and pBAD GFP^Y39TAG

[3] = Long time stability of the covalent bond in labeled proteins (FRET); conditions: labeled with Me-Tet-Cy3, excess filtered off, 4 h to 76 h
Protocol: To proof the stability of the formed covalent bonds between TCO* and the dye-Tet in a SPIEDAC reaction, long time FRET experiments were carried out. Basically, the same FRET assay as described above was used to test whether the fluorophores stays covalently attached to the protein or not over a period of 36 h. 200 nM GFP^TAG→3 were separately reacted with 2 μM Me-Tet-Cy3 at room temperature (rt) and the ratio between D and A fluorophore was followed over time.
In another experiment, Ni-NTA-purified GFP^TAG→UAA (1-4) was labeled with Me-Tet-Cy3 (2 h, 37° C.). Excess Me-Tet-Cy3 was filtered off (˜2 h). 200 nM labeled GFP^TAG>UAA+Cy3 (with 1-4) were followed over time by FRET as described above. Note that the first data point was taken approximately 4 h after adding the tetrazine to the proteins. No significant changes between the FRET ratio measured after 4 h and after 76 h were observed (FIG. 7).

[4] = test system: HEK293T cells; assay: Pulse-chase dual-color labeling of insulin receptor IR^TAG; format: cell-based
Protocol: For insulin receptor experiments, HEK293T cells were maintained in Dulbecco's Modified Eagle's Medium—DMEM (high glucose—4.5 g/l) supplemented with 10% FBS (Sigma), 1% L-glutamine (Invitrogen, Palo Alto, USA) and 1% Pen-Strep (Invitrogen) in a 5% CO2 atmosphere at 37° C. Cells were passaged every 2-3 days up to 15-20 passages. For microscopy, cells were seeded on 4-well chambered Lab-Tek #1.0 borosilicate coverglass (ThermoFisher, Ma USA) 15-24 h prior to transfections. Transfections were performed with JetPrime reagent (PegLab, Erlangen, Germany) according to the manufacturer's recommendations. In short, for double-transfections with IR and tRNA^Pyl/PylRS^AF vectors we used plasmids in 1:1 ratio keeping total amount of DNA at 1 μg. UAAs were added after the transfections in two pulses (see FIG. 2a). UAAs were dissolved in DMSO (250 mM stock of PrK; 100 mM stock of TCO*) or 20% formic-acid DMSO (500 mM stock of BCN; 250 mM stock of SCO). Each UAA was used at a final concentration of 250 μM. After the 2nd UAA pulse, cells were rinsed with fresh medium and kept overnight in DMEM.
In the morning following transfections, medium was exchanged to serum-free high glucose DMEM […], in which all the subsequent washing and labeling steps were also performed. The transfected cells were then labeled according to the following protocols. […]

[5] = FRET assay of labeling kinetics of GFP^TAG→UAA with Me-Tet-Cy3; conditions: tested experimental conditions of the FRET assay; listed as SCO
Protocol: For observation of labeling kinetics, GFP^TAG→UAA was expressed with 1-5 (for structures of UAAs see FIG. 1a). E. coli lysate was adjusted to a final GFP concentration of 200 nM based on absorbance spectra. H-Tet-Atto532 7 or Me-Tet-Cy3 8 (see FIG. 4), respectively, were added to a final concentration of 2 μM and fluorescence spectra (excitation at λ=450 nm, emission λ=470-650 nm) were recorded at different time points. The experiments were carried out in a total volume of 2 ml and continuous stirring. 1 mM stocks of the dyes in DMSO were used. Successful labeling of GFP^TAG→UAA was monitored by Foerster resonance energy transfer (FRET) from the GFP-chromophore (serving as a Donor, D) to the synthetic fluorophore (Acceptor, A) when covalently attached. In the individual spectra this is visible by a decrease of GFP-fluorescence (around λ=503-506 nm) and a simultaneous increase of Atto532- (λ=551 nm) or Cy3-fluorescence (λ=563 nm), respectively, over time (shown exemplarily for GFP^TAG→3 (TCO*) in the left panel of FIG. 5). […] Note that time point “0 min” is defined as the time point about 15 s after pipetting the dye to the protein solution. […]

[6] = Stability of trans-cyclooctenyl isomers against thiols by 1H-NMR; format: physicochemical; conditions: two equivalents of cysteamine, 60° C., ten days (240 h)
Protocol: In order to test for stability against thiols, UAAs 2-4 were separately combined with two equivalents of cysteamine hydrochloride in dPBS/dioxane-d8 (v/v 1:1), NMR tubes were tightly sealed, and incubated at rt, 37° C., or 60° C. ^1H-NMR spectra were measured after 24 h of incubation and later time points (in case of 3). […] For all three trans-cyclooctene-containing UAAs, conversion of the trans-cyclooctenyl-form to its corresponding cis-cyclooctenyl-form was observed (FIG. 8b). […] These numbers were obtained by comparing the integrals for the double bond protons and the —CHO— protons (if possible/applicable) before and after the heat treatment as it was done before by others for similar compounds ((a) B. R. Varga, M. Kallay, K. Hegyi, S. Beni, P. Kele, Chemistry 2012, 18, 822-828; b) R. van Geel, G. J. Pruijn, F. L. van Delft, W. C. Boelens, Bioconjugate chemistry 2012, 23, 392-398; J. Yang, J. Seckute, C. M. Cole, N. K. Devaraj, Angew Chem Int Ed Engl 2012, 51, 7476-7479). Observations at different temperatures were consistent with the expectation that the higher the temperature, the faster/easier the isomerization. Isomerization to the cis-form continued in samples kept at rt or 37° C. after 24 h (data not shown).

[7] = 1H-NMR assay of orthogonality of seSPIEDAC and SPIEDAC reactions; format: physicochemical; conditions: 5 mm dienophile, 10 mm tetrazine, DMSO-d6, 10 min at room temperature
Protocol: Stock solutions of the dienophiles in DMSO-d6 with a final concentration of 10 mm were prepared. A 20 mm stock of the formic acid salt of (4-(6-methyl-1,2,4,5-tetrazine-3-yl)phenyl)methanamine (termed as methyl tetrazine or Me-Tet-NH2) in DMSO-d6 was prepared, too. As control experiment, either the dienophile or the diene (Me-Tet-NH2) were mixed with DMSO-d6 1:1 (v/v; 760 μl total volume) to yield a final concentration of 5 mm or 10 mm, respectively, in the NMR tube. To confirm whether a dienophile reacts with the diene (Me-Tet-NH2) or not, the corresponding stocks were mixed 1:1 (v/v; 760 μl total volume) to yield a final concentration of 5 mm of the dienophile and 10 mm of the diene in the NMR tube. The samples were incubated for 10 min at room temperature before analyzed by ^1H-NMR.

T1 sequence (Q8PWY1 whole entry Y306A/Y384F): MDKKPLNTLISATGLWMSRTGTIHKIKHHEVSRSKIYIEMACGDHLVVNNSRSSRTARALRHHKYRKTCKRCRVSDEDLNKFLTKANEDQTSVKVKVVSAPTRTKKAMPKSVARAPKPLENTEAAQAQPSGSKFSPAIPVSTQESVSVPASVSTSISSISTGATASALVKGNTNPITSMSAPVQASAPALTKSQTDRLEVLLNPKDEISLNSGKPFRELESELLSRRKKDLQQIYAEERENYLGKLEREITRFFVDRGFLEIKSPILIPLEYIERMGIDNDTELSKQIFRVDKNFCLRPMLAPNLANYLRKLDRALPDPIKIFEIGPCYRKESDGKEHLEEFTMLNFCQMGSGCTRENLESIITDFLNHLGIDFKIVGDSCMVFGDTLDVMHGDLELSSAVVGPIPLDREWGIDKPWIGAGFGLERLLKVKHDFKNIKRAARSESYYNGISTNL

Row | Structure (SMILES) | stability by 1H-NMR [1] | expression yield of GFP^TAG→UAA (Coomassie SDS-PAGE) [2] | protein yields [2] | incorporation rate compared with compound 2 [2] | other results
1 | N[C@@H](CCCCNC(=O)OC1CC/C=C/CCC1)C(=O)O (stereo partly drawn) [Compound 2, N-ε-((trans-Cyclooct-4-en-1-yloxy)carbonyl)-L-lysine] | remained un-changed |  |  |  | 
2 | N[C@@H](CCCCNC(=O)OC1C/C=C/CCCC1)C(=O)O (stereo partly drawn) [Compound 4, N-ε-((trans-Cyclooct-3-en-1-yloxy)carbonyl)-L-lysine] | remained un-changed | higher expression yields than the TCO |  |  | 
3 | N[C@@H](CCCCNC(=O)OC1/C=C/CCCCC1)C(=O)O (stereo in doubt) [Compound 3a, N-ε-((trans-Cyclooct-2-en-1-yloxy)carbonyl)-L-lysine] |  | higher expression yields than the TCO | 0.4 mg/L | more readily incorporated than compound 2 by about a factor of two | 
4 | N[C@@H](CCCCNC(=O)OC1/C=C/CCCCC1)C(=O)O (stereo in doubt) [Compound 3b, N-ε-((trans-Cyclooct-2-en-1-yloxy)carbonyl)-L-lysine] |  | higher expression yields than the TCO | 0.4 mg/L | more readily incorporated than compound 2 by about a factor of two | 
5 | N[C@@H](CCCCNC(=O)OCC1C2CCC#CCCC21)C(=O)O (some centres unmarked) [Compound 1] |  |  |  |  | stability of covalent bond, FRET ratio over time [3]: consistent FRET values over time; labeling of IR (confocal) ([4]; TCO* pulse, BCN chase, Me-Tet-Cy5, quencher, H-Tet-Atto532): no signal in the Atto532 channel was observed
6 | N[C@@H](CCCCNC(=O)OC1C#CCCCCC1)C(=O)O (stereo partly drawn) [Compound 5, N-ε-((Cyclooct-2-yn-1-yloxy)carbonyl)-L-lysine] |  |  |  |  | Reactivity with Me-Tet (in words) [5]: basically no detectable reactivity; also recorded: no substantial reactivity with Me-Tet; labeling of IR (confocal) ([4]; TCO* and SCO, Me-Tet-Cy5 then H-Tet-Atto532, 10 min): bright labeling of the IR in the plasma membrane for both channels
7 | N[C@@H](CCCCNC(=O)OC1/C=C/CCCCC1)C(=O)O (stereo partly drawn) [Compound 3, N-ε-((trans-Cyclooct-2-en-1-yloxy)carbonyl)-L-lysine] | remained un-changed | higher expression yields than the TCO | 0.4 mg/L | more readily incorporated than compound 2 by about a factor of two | trans-form left after ten days [6]: more 3 (TCO*) was left in its trans-form than for 2 (TCO) and 4 (TCO^#) after 24 h; stability of covalent bond, FRET ratio over time [3]: consistent FRET values over time
8 | OC1CC2C=CC1C2 (centres unmarked) [5-norbornene-2-ol] |  |  |  |  | reaction with tetrazine Me-Tet-NH2 by 1H-NMR [7]: No new signals were detected

— US10519101B2, “Trans-cyclooctene amino and hydroxy acids and their use in multiple cycloaddition reactions for labeling of molecules” (EUROPEAN MOLECULAR BIOLOGY LABORATORY, priority 2014, dated 2019)
